The values below are quoted from earlier work in patent publication US10695437B2, “Polycomplexes of poly-lysine compounds for preventing and/or combatting amyotrophic lateral sclerosis” (GEMAC, priority 2016, dated 2020).

In this data set the test system is ALS. As to conditions: ALS patients.

For `Nc1nc2ccc(OC(F)(F)F)cc2s1` [Riluzole], the Side effects entry was “numerous side effects (liver toxicity)”.
